According to patent US10052320B2, “Substituted quinoxalines as FGFR kinase inhibitors” (ASTEX THERAPEUTICS LIMITED, priority 2011, dated 2018):

Columns and labels:
FGFR4 (h) = FGFR4 (h) (Homo sapiens, UniProt P22455); test: FGFR4 (enzymatic assay), TR-FRET; type: biochemical; conditions: read-out: FGFR 4 pIC50 (converted)
Description: In a final reaction volume of 30 μL, FGFR4 (h) (60 ng/ml) was incubated with 50 mM HEPES pH 7.5, 6 mM MnCl2, 1 mM DTT, 0.1 mM Na3VO4, 0.01% Triton-X-100, 500 nM Btn-Flt3 and 5 μM ATP in the presence of compound (1% DMSO final). […] Time-Resolved Fluorescence Resonance Energy Transfer (TR-FRET) signal (ex340 nm. Em 620 nm, em 655 nm) was measured afterwards and results are expressed in RFU (Relative Fluorescence Units).

[1] = biological target: Ba/F3-FGFR3-transfected cells (Homo sapiens, UniProt P22607); test: Ba/F3-FGFR3 (minus IL3) cellular proliferation assay, Alamar Blue; type: cell-based; conditions: for BAF3-FGFR 3 (MIN IL3) 384 well pIC50: minus IL3, 384 well; for BAF3-FGFR 3 (MIN IL3) 96 well pIC50: minus IL3, 96 well
Description: (§1) Ba/F3-FGFR3 (Minus IL3 or Plus IL3) (Cellular Proliferation Assay)
(§2) Cells were put in an incubator at 37° C. and 5% CO2. After 24 hours, 10 μl of Alamar Blue solution (0.5 mM K3Fe(CN)6, 0.5 mM KaFe(CN)6, 0.15 mM Resazurin and 100 mM Phosphate Buffer) was added to the wells, incubated for 4 hours at 37° C. and 5% CO2 before RFU's (Relative Fluorescence Units) (ex. 540 nm., em. 590 nm.) were measured in a flurorescence plate reader. […]
(§3) In a 96 well plate, 180 μl cell culture medium (phenol red free RPMI-1640, 10% FBS, 2 mM L-Glutamine and 50 μg/ml Gentamycin) containing 10000 cells per well of Ba/F3-FGFR3-transfected cells were pipette and 20 μl of compound dilution in DMSO was added. Cells were put in an incubator at 37° C. and 5% CO2. After 24 hours, 40 μl of Alamar Blue solution (0.5 mM K3Fe(CN)6, 0.5 mM KaFe(CN)6, 0.15 mM Resazurin and 100 mM Phosphate Buffer) was added to the wells, incubated for 4 hours at 37° C. and 5% CO2 before RFU's (Relative Fluorescence Units) (ex. 540 nm., em. 590 nm.) were measured in a flurorescence plate reader.

[2] = system: Ba/F3-FGFR3-transfected cells in the presence of 10 ng/ml murine IL3; test: Ba/F3-FGFR3 (plus IL3) cellular proliferation counterscreen, Alamar Blue; type: cell-based; conditions: Mus musculus; plus 10 ng/ml murine IL3; 384 well; read-out: BAF3-FGFR 3 (PLUS IL3) 384 well pIC50 (converted)
Description: as §1
as §3, with “a 384” for “a 96”, “plate, 100 nl of compound dilution in DMSO was sprayed before adding 50” for “plate, 180”, “containing 20000” for “containing 10000”, “Ba/F3-FGFR3-transfected cells.” for “Ba/F3-FGFR3-transfected cells were pipette and 20 μl of compound dilution in DMSO was added.”, “hours, 10” for “hours, 40”
As a counterscreen the same experiment was performed in the presence of 10 ng/ml murine IL3.
as §3

[3] = biological target: T1, Ba/F3-Flt3-transfected cells (Homo sapiens, UniProt P36888, cells depend on it, form not given); test: Ba/F3-Flt3 (minus IL3) cellular proliferation assay, Alamar Blue; type: cell-based
T1 sequence (P36888 1-993): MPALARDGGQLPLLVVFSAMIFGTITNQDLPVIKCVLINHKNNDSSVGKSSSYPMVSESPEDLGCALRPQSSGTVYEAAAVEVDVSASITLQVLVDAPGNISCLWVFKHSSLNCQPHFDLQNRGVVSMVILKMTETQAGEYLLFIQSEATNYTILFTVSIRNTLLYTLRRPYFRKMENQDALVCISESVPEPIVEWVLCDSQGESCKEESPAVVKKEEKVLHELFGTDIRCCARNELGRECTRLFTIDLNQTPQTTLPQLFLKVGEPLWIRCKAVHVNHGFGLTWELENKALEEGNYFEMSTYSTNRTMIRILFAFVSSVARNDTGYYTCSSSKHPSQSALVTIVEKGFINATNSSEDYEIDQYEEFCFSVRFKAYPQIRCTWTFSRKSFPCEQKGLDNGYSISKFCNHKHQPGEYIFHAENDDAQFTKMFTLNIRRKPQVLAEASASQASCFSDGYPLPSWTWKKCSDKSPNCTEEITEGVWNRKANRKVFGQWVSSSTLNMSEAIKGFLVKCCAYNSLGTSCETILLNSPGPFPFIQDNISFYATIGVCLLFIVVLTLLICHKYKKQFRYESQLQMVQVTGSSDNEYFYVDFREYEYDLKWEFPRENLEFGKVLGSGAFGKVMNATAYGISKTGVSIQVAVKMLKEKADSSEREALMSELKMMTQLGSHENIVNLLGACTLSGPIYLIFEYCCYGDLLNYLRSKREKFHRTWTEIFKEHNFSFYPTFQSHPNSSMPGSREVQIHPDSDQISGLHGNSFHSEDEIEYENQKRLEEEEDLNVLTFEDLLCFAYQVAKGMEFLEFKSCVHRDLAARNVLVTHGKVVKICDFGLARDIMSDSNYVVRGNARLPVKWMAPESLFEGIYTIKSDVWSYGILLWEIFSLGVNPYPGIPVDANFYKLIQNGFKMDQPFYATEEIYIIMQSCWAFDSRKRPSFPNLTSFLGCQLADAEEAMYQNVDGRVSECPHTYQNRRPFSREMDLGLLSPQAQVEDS
Description: Ba/F3-Flt3 (Minus IL3 or Plus IL3) (Cellular Proliferation Assay)
as §2
as §3, with “Ba/F3-Flt3-transfected” for “Ba/F3-FGFR3-transfected”

Sequence of Ba/F3-FGFR3-transfected cells (P22607 whole entry, change not shown): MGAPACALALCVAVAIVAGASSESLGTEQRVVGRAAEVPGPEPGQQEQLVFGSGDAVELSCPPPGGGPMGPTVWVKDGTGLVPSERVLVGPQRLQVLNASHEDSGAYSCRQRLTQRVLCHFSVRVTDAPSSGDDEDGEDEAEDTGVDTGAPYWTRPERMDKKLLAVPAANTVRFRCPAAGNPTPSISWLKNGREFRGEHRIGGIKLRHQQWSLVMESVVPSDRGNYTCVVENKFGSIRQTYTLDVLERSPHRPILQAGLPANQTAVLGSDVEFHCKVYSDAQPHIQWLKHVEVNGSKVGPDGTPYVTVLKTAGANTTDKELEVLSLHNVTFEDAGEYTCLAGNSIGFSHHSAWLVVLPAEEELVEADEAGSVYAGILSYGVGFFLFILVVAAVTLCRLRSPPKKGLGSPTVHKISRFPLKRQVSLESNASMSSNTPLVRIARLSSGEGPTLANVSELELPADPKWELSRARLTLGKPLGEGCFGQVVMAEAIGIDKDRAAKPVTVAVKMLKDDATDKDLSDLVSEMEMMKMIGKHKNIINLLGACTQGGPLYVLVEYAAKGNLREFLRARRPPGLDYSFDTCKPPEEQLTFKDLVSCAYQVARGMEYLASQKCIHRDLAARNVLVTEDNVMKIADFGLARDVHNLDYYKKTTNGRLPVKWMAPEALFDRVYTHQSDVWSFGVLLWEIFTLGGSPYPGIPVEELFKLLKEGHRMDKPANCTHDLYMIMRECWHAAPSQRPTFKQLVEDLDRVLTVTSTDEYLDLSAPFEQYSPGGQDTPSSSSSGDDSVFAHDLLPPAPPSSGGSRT
Sequence of FGFR4 (h) (P22455 22-802): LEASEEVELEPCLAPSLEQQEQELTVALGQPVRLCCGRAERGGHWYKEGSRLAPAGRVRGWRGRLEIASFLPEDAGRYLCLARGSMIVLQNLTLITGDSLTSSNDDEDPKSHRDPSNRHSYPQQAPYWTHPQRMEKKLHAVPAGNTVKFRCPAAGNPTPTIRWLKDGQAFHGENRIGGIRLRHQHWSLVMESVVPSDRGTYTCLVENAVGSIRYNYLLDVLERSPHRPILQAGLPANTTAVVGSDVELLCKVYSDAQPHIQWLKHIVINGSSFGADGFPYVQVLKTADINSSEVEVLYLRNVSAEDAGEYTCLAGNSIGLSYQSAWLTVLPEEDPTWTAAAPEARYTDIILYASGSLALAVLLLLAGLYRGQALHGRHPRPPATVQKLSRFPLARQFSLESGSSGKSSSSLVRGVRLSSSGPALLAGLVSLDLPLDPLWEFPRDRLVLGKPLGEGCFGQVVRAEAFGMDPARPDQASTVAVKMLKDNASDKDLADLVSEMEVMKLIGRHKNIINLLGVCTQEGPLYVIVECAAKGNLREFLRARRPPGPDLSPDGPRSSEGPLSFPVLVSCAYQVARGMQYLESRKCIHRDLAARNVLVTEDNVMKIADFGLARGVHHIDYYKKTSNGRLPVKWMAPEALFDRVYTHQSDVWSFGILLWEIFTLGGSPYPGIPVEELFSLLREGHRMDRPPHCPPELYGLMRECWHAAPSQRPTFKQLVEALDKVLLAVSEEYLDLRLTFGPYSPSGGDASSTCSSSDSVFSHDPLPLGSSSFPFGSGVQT

IC50 (FGFR4 (h)) | BAF3-FGFR 3 (MIN IL3) 384 well pIC50 [1] | BAF3-FLT3 (MIN IL3) 384 well pIC50 ([3]; minus IL3) | melting point | BAF3-FGFR 3 (MIN IL3) 96 well pIC50 [1] | BAF3-FLT3 (MIN IL3) 96 well pIC50 ([3]; minus IL3, 96 well) | BAF3-FLT3 (MIN IL3) 384 well pIC50 ([3]; minus IL3, 384 well) | BAF3-FLT3 (MIN IL3) 96 well pIC50 ([3]; minus IL3) | Compound | IC50 [2]
331 nM | 5.38 | <5 |  |  |  |  |  | COc1cc(OC)cc(N(CCNC(C)C)c2ccc3ncc(NCC4CCNCC4)nc3c2)c1 [Compound 161] | > 10000 nM
166 nM | 5.32 | <5 | 115 °C |  |  |  |  | COc1cc(OC)cc(N(CCCO)c2ccc3ncc(-c4cccnc4F)nc3c2)c1 [Compound 149] | 
309 nM |  | <5 |  |  |  |  |  | COc1cc(OC)cc(N(CCNC(C)C)c2ccc3ncc(C(=O)NCCN4CCOCC4)nc3c2)c1 [Compound 160] | > 10000 nM
468 nM | 5.1 | <5 | 128 °C |  |  |  |  | COc1cc(OC)cc(N(CCCNCC(F)(F)F)c2ccc3ncc(-c4ccnc(F)c4)nc3c2)c1 [Compound 144] | 
> 10000 nM | <5 | <5 | 160 °C | <5 |  |  | <5 | COc1cc(OC)cc(N(CC2CC2)c2ccc3ncc(-n4cccn4)nc3c2)c1 [Compound 95] | 
7.24 nM | ~7.1 |  |  |  |  |  |  | COc1cc(OC)cc(N(CCNC(C)C)c2ccc3ncc(-c4ccn[nH]4)nc3c2)c1 [Compound 189] | > 10000 nM
42.7 nM | ~5.83 | 5.91 | 172 °C |  |  |  |  | COc1cc(OC)cc(N(CCCNC(C)C)c2ccc3ncc(-c4ccnc(NC(=O)OC(C)(C)C)c4)nc3c2)c1 [Compound 137] | 
> 1000 nM | <5 | <5 | 172 °C |  |  |  |  | COc1cc(OC)cc(N(CCCO)c2ccc3ncc(-c4ccnc(-c5ccnc(Cl)c5)c4)nc3c2)c1 [Compound 133] | 
151 nM | 5.2 | <5 | 161 °C |  |  |  |  | COc1cc(OC)cc(N(CCCO)c2ccc3ncc(-c4ccnc(C(=O)NCCCCCN)c4)nc3c2)c1 [Compound 130] | 

Further lines, the compound ahead of its results:

Compound | IC50 (FGFR4 (h)) | BAF3-FGFR 3 (MIN IL3) 384 well pIC50 [1] | BAF3-FLT3 (MIN IL3) 384 well pIC50 ([3]; minus IL3) | melting point | BAF3-FGFR 3 (MIN IL3) 96 well pIC50 [1] | BAF3-FLT3 (MIN IL3) 96 well pIC50 ([3]; minus IL3, 96 well) | BAF3-FLT3 (MIN IL3) 384 well pIC50 ([3]; minus IL3, 384 well) | BAF3-FLT3 (MIN IL3) 96 well pIC50 ([3]; minus IL3) | IC50 [2]
COc1cc(OC)cc(N(CCCNCC(=O)O)c2ccc3ncc(-c4ccnc(C(=O)NCCCCN)c4)nc3c2)c1 [Compound 44] | 51.3 nM | <5 | <5 | 64 °C |  |  |  |  | 
COc1cc(OC)cc(N(CC2CC2)c2ccc3ncc(-c4ccc5[nH]ccc5c4)nc3c2)c1 [Compound 86] | 3980 nM | <5 |  | 181 °C | 5.4 | <5 | <5 |  | 
COc1cc(OC)cc(N(CCO)c2ccc3ncc(N4CCC(CN)CC4)nc3c2)c1 [Compound 84] | 617 nM | <5 | <5 | 159 °C |  |  |  |  | 
COc1cc(OC)cc(N(CCO)c2ccc3ncc(-c4ccc(N5CCOCC5)nc4)nc3c2)c1 [Compound 19] | 17.8 nM | 6.17 | <5 | 193 °C |  |  |  |  | 
COc1cc(OC)cc(N(CC2CC2)c2ccc3ncc(N4CCN(C)CC4)nc3c2)c1 [Compound 64] | 2880 nM | <5 |  | 92 °C | 5.02 | ~5.12 | <5 |  | 
COc1cc(OC)cc(N(CCN2CCNCC2)c2ccc3ncc(-c4ccc(N)nc4)nc3c2)c1 [Compound 59] | 64.6 nM | 5.9 | 5.28 | 111 °C |  |  |  |  | 
COc1cc(OC)cc(N(CC2CC2)c2ccc3ncc(-c4ccnc(N5CCN(C)CC5)c4)nc3c2)c1 [Compound 37] | 302 nM | ~5.26 |  | 125 °C | 5.77 | 5.59 | 5.05 |  | 
COc1cc(OC)cc(N(CC2CC2)c2ccc3ncc(-c4nnc(C)o4)nc3c2)c1 [Compound 85] | 1480 nM | <5 |  | 134 °C | 5.06 | <5 | <5 |  | 
